The text below walks through data of article PMC5410965 (ACS infectious diseases, 2016).

SMILES strings stand for the structures.

In data set [1] the test system is Mtb 20S versus human 20S. The note with it: human 20S over Mtb 20S; cited from earlier work.
Data set [2] deals with National Cancer Institute panel of sixty human cancer cell lines. The data set can be described thus: National Cancer Institute panel of sixty human cancer cell lines, growth. It counts as cell-based. The settings on record: 10 μM; NCI sixty human cancer cell lines.
Data set [3] deals with Mtb 20S (Mycobacterium tuberculosis, UniProt P9WHT9). The note with it: second-order rate constant for inhibition; substrate Suc-LLVY-AMC; triplicate.
Data set [4] deals with HepG2 human liver carcinoma cell line. The data set can be described thus: Toxicity to HepG2 cells. The settings on record: concentrations as high as 50 μM.

Mtb 20S, sequence (P9WHT9 58-291): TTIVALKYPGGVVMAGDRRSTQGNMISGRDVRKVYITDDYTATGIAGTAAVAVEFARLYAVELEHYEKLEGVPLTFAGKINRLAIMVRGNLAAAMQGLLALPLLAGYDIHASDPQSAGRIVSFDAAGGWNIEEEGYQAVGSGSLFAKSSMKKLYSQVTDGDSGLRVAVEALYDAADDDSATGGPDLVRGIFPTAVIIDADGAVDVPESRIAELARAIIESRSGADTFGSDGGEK
Mtb 20S, sequence (P9WHU1 whole entry partner): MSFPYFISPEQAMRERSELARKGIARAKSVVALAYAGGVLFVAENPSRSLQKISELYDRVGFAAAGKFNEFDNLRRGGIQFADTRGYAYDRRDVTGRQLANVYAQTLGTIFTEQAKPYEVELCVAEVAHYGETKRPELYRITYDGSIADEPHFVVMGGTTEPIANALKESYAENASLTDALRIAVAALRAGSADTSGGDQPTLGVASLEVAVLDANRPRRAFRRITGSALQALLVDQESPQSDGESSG

Consider `CC(C)C[C@H](NC(=O)[C@H](Cc1ccccc1)NC(=O)c1cnccn1)B(O)O` [bortezomib], for which the “preference for reversible inhibition of human 20S” value in data set [1] was 18 fold.
On to `COC(=O)[C@@H](NC(=O)N[C@H](C(=O)N[C@H]1CCCCNC(=O)/C=C/[C@H](C(C)C)NC1=O)C(C)C)C(C)C` [Compound 1, syringolin B methyl ester], for which the “mean growth compared to untreated (vehicle) controls” value in data set [2] is recorded as 27%. The “Mtb 20S kin/Ki” value in data set [3] is 4.60 M⁻¹ s⁻¹. The “toxicity to HepG2 cells” value in data set [4] was “toxic”.
